The source of these data is patent publication US20100203001A1, “PROCESS FOR FORMING DISULFIDE BRIDGES” (APLAGEN GMBH, priority 2007, published 2010).

The nature of test [1]: tests of the capacity to promote the formation of disulfide bridges. The class given is biochemical. As to the method:
The tests were carried out as described previously (see above). The substance tested and the amounts tested are stated in each case.

In test [2] the test system is BB57. The test is described as follows: cyclization (oxidation) of EPO mimetic peptide BB57 to BB57C in air in water, monitored by HPLC or Ellman's test. The class given is biochemical. In general terms: Ellman's reagent forms a yellow product with free thiols.
Test [3] has as its system human hair. The test is described as follows: oxidation of reduced human hair by heterocyclic compound with metal ions, thiol groups by Ellman's reagent. As to the method: To this end, for each measuring point the disulfide bridges of 5 mg hair were first reduced using ammonium thioglycolate/ammonium thiolactate (commercially available formulations for permanent waves) in order to open them. Subsequently, the reduction solution is removed and the hair was washed with water several times. Then, the hair was subjected to the different oxidation mixtures in order to again close the disulfide bridges. After filtrating these solutions, the amount of thiol groups was determined using the Ellman's reagent. Thereby, a statement on the speed and efficiency of the oxidation step and thus the renewed closure of the disulfide bridges can be made.
In several experiments combinations of different metal additives in place of higher amounts of a single salt component are also used. The amounts in the mixture “artificial tap water” described below are based on the maximum values of the regulation for tap water of the FRG, wherein the following combination of metal ions was used: 0.2 mg/L iron ([…], 5 mg/L zinc (Zn^2+), 2 mg/L copper (Cu^2+) and some hardening components 100 mg/L calcium (Ca^2+) and 50 mg/L magnesium (Mg^2+).

Test [4] relates to EPO mimetic peptide. The test is described as follows: cyclization of an EPO mimetic peptide that can only be cyclized with great difficulty. As to conditions: 10 mg/ml caffeine. The class given is biochemical. How it is done: Some of the EPO mimetic peptides can only be cyclized with great difficulty. An example is the following peptide:
The yield after approx. 21 h in solution was already >90%.

Test [5] concerns hair. The experiment in a line: oxidation of hair reduced with ammonium thioglycolate Wave-Lotion, free thiol groups by Ellman's reagent (412 nm). The settings on record: air, room temperature, 3 days. How it is done: The solution is removed and the hair is then washed 6 times with 400 μl H2O each time.
For determination of the free thiol groups still remaining, after removing the reaction solution the hair is reacted with fEllman's reagent (5,5′-dithiobis(2-nitrobenzoic acid), DTNB). […] The hair samples are put in 200 μl each of 100 mM phosphate buffer, pH 8.0 and 1 mM EDTA, and 300 μl of a 1 mM DTNB solution in the same EDTA-containing buffer. The solution is analyzed after a few minutes in a UV-Vis spectrometer.

The target of test [6] is oxytocin, reduced (OxyR) (Homo sapiens, UniProt P01178). The experiment in a line: cyclization of reduced oxytocin-derived peptide (OxyR) to oxytocin (Oxy) in air, HPLC. The class given is biochemical. The settings on record: GSSG optionally added with caffeine. How it is done: The reaction mixture was analyzed by HPLC at regular intervals, in order to determine the contents of OxyR and the product oxytocin (Oxy).

Where [7] appears, read: in combination with artificial tap water salt mixture.
Where [8] appears, read: single agent in water (10 mg/ml caffeine or 5 mg/ml GSSG).

“Also recorded” adds a separate entry of the source. Read-outs that look alike come from different tables or passages of the source.

In the case of `O=c1ccc(=O)[nH][nH]1` [1,2-dihydro-3,6-pyridazinedione], the “capacity to promote the formation of disulfide bridges” value (“capacity to promote the formation” below) in test [1] is “active”.
Still for that read-out and setting: then `Cn1ccc(=O)[nH]c1=O` [1-methyl-uracil], with “good activity”; and `Nc1ccnc(N)n1` [2,4-diaminopyrimidine], with “do not have the capacity to promote the formation of disulfide bridges”; and `Cc1cc(O)nc(O)n1` [2,4-dihydroxy-6-methylpyrimidine], with “active”.
Same read-out and setting: then `Cc1cc(O)nc(C)n1` [2,4-dimethyl-6-hydroxypyrimidine], with “active”; and `Cc1cc(O)nc(C(C)C)n1` [2-isopropyl-6-methyl-4-pyrimidinol], with “active”; and `Cc1nc(O)cc(O)n1` [4,6-dihydroxy-2-methylpyrimidine], with “active”.
On the same count and under the same terms, then `Oc1cc(O)ncn1` [4,6-dihydroxy-pyrimidine], with “active”.
As to `O=C(O)CN(CCN(CC(=O)O)CC(=O)O)CC(=O)O` [EDTA, ethylenediaminetetraacetic acid], the “effect of complexing agent on the strong effect of the iron ions” value in test [2] (alloxan plus iron ions (3 μM) with two equivalents EDTA) was “slightly weakened”.
For `O=C1NC(=O)C(=O)C(=O)N1` [alloxan, alloxan monohydrate], in test [3] (0.1% alloxan solution with low amounts of iron(III) ions, after 10 minutes), the “reverse oxidation of the thiols in hair” value is given as “almost complete reverse oxidation”. Also, the “advantage due to the addition of salt” value in test [3] (alloxan with iron(III) chloride or artificial tap water, control after 10 minutes) is “small advantage”. Also, the “oxidation of reduced hair” value in test [3] (setting [7]) is reported as “completely oxidize the hair”. In test [1], the “capacity to promote the formation” value is given as “Active”. In test [2], the “effect of iron(III) ions on oxidation” value is on record as “accelerating effect”, the reaction time entry is “less than an hour” and the “time until almost completely cyclised” value is reported as “about 2 h”.
For `Nc1cnccn1` [aminopyrazine], the “capacity to promote the formation” value in test [1] was “do not have the capacity to promote the formation of disulfide bridges”.
Regarding `O=C1CC(=O)NC(=O)N1` [barbituric acid], the “capacity to promote the formation” value in test [1] is “Active”.
Regarding `Cn1c(=O)c2c(ncn2C)n(C)c1=O` [caffeine], in test [3] (comparison with alloxan), the “strength as catalysator on hair” value is “weaker compared to alloxan”. For the same compound, in test [3] (setting [7]), the “duration of the reaction compared with alloxan” value is listed as “takes longer” and the “oxidation of reduced hair” value is on record as “completely oxidize the hair”. Moreover, the “time until cyclization successful” value in test [4] is reported as ≤ 24 h. The “oxidation of the thiol groups of reduced hair” value in test [5] (combination 10 mg/ml caffeine and 5 mg/ml GSSG) is “almost quantitative oxidation of the thiol groups”. The “oxidation of the thiol groups of reduced hair” value in test [5] (setting [8]) is given as “partial oxidation of the thiol groups”. In test [2], the “reaction time until complete conversion” value is reported as “about 10 h”, the time of cyclisation result was “about an hour; also recorded: shortened”, the “time until complete conversion” value is reported as “about 15 h” and the “time until conversion is quantitative” value is listed as “ten”. Moreover, the “time until oxidation is completed” value in test [2] was “approx. 24 h”.
Consider `O=S(=O)([O-])[O-].[Fe+2]` [iron(II) sulfate], for which the “accelerating effect on the cyclisation of BB57” value in test [2] was “no activity”.
As for `Nc1nc(N)nc(N)n1` [melamine], in test [1], the “capacity to promote the formation” value is “do not have the capacity to promote the formation of disulfide bridges”.
For `Nc1cc(N2CCCCC2)nc(N)[n+]1[O-]` [minoxidil, 6-(1-piperidinyl)-2,4-pyrimidinediamine-3-oxide], in test [2] (0.7 mg BB57 and 0.3 mg substance in 1 ml distilled water, in the air, HPLC), the “time until oxidation is completed” value was “approx. 29 h”.
In the case of `NC(=O)c1cnccn1` [pyrazine amide], the “capacity to promote the formation” value in test [1] was “do not have the capacity to promote the formation of disulfide bridges”.
Regarding `O=C(O)c1cnccn1` [pyrazine-carboxylic acid], in test [1], the “capacity to promote the formation” value is on record as “do not have the capacity to promote the formation of disulfide bridges”.
On the same count and under the same terms, then `O=C(O)c1cc(O)nc(O)n1` [uracil-6-carboxylic acid], with “active”; and `O=C1NC(=O)C(=NO)C(=O)N1` [violuric acid], with “Active”.
For the compound glutathione in oxidized form [GSSG], the “oxidation of the thiol groups of reduced hair” value in test [5] (setting [8]) was “partial oxidation of the thiol groups”. Moreover, in test [6], the “influence on rate or yield” value is “no influence on rate or yield”. Also, the “conversion of the peptide” value in test [2] is “only takes place slowly”.
As for potassium hexacyanoferrate, the “effect of stable metal ion complex on cyclisation by alloxan” value in test [2] (alloxan plus potassium hexacyanoferrate(II) or (III) (30 μM), Ellman's reagent) is listed as “accelerating effect”.
